Experimental data as given in patent US11512042B2, “Enamine compounds for absorbance of electromagnetic energy” (Commonwealth Scientific and Industrial Research Organisation, priority 2015, dated 2022).
“And” between values parts separate entries of the source, which are not always exact repeats. Identical values can stand only once. “Also recorded” adds a separate entry of the source.

Legend:
Type in all cases: physicochemical
[1] = Lens casting in CR-39 lens formulation; settings: benzoyl peroxide initiator, cured 70° C. 18 hours, 0.1 wt %
Experimental: (§1) Two lens formulations were used. The first (CR-39) was composed of Di(ethylene glycol) bis(allylcarbonate) with 3% wt benzoyl peroxide as initiator. The second lens formulation (NK) was made up of 4 parts NK Ester BPE 100N (Ethoxylated Bisphenol A dimethacrylate) to 1 part NK Ester 9G (PEG 400 dimethacrylate) with 0.4 wt % AIBN as initiator.
(§2) Once the glue had dried the lens matrix (3 g of the lens matrix was treated with 3 mg of absorber, 0.1 wt % and stirred until dissolution complete. 3 g of the matrix was sufficient to prepare 3-4 lenses) was added via pipette to the interior until a convex meniscus was formed at the top of the O-ring. The mixture was then left to settle for 15 minutes during which time any bubbles formed were dispersed. A second microscope slide was then slowly rolled on top of the first to form a seal and expel any air. Taking care to maintain pressure the lens mould was then clamped at the sides with two “Bulldog” clips and cured in an oven at 70° C. for 18 hours. Once the curing process was complete the two microscope slides were separated and the lens removed from the O-ring before washing with acetone and drying/polishing with a soft tissue. The lenses thus formed were approximately 2 mm thick and 15 mm in diameter.
Of particular interest are compounds 163 and 164 which show an increase in λmax on constraining only the nitrogen substituent in a ring i.e. not the double bond. […] Additionally the dimethyl analogue 213 (structure in table 14) was also evaluated.

[2] = Photostability protocol: thin film irradiated with xenon arc lamp; settings: 1 hour xenon arc lamp; for Photostability: ratio of absorbance at λmax irradiated vs unirradiated, ^a = average of multiple measurements
In short: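 A 3% solution in EtOH/triglyceride/alkyl benzoate is dried on glass slides into a liquid film of 1.5 mg compound. Films are irradiated 1 h with a Pyrex-filtered 150 W xenon arc lamp (about 100 MED, below 30° C). Washings are read by UV; stability is absorbance at λmax relative to unirradiated film.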

[3] = Lens casting in NK ester lens formulation; settings: AIBN initiator, cured 70° C. 18 hours, 0.1 wt %
Experimental: as §1, §2

[4] = PMMA film in QUV Weatherometer; settings: type A bulbs, 70° C. 8 hours then dark humid 50° C. 4 h
Experimental: In order to gauge longer term photostability, the PMMA film samples were evaluated in a QUV Weatherometer using type A bulbs with solar irradiance at 70° C. for 8 hours followed by heating in the dark under a humid atmosphere at 50° C. for 4 h. The film was then sandwiched between 2 glass slides to prevent deformation and irradiated. The samples were evaluated by a visual comparison and measurement of transmittance spectra. […] This clearly indicates the suitability of compounds of the first aspect to incorporation into polymeric matrices and films. The relevant transmission spectra are shown in FIG. 11 (142), FIG. 12 (143), FIG. 13 (164), FIG. 14 (213) and FIG. 15 (215) wherein in all of these figures the lower plateau line represents the result following radiation and the upper line prior to irradiation.

[5] = Solubility in the photostability test solution; settings: printed in the photostability (or steepness) column
Excerpt: The properties of these compounds are shown in table 9 with comparator compounds. […] In both cases low solubility meant that photostability could not be measured. This would not preclude use of the compounds in many applications where solubility is not at issue.
In one embodiment, the compounds may provide for improved solubility or stability in standard compositions, including sunscreen compositions. Such solubility may be measured by generating, for example, a 3% solution of the relevant compound in 2:1:1 EtOH:capric/caprylic triglyceride:C12-C15 alkyl benzoate.
1 mL of a 3% solution of the test compound (30 mg of test compound in 1 mL solvent) was prepared in a solvent mix made up of 50% EtOH and 25% capric/caprylic triglyceride and 25% C12-C15 alkyl benzoate. 50 μL of this solution (containing 1.5 mg of test compound) was added carefully to the centre of a glass microscope slide and the volatile components left to evaporate in the dark for at least 3 hours to give a liquid film. The prepared films were then exposed for 1 hour to an Eimac 150 W xenon arc lamp filtered through Pyrex (15 Amp supply current, samples 19 cm from the lamp) previously allowed to warm up for 15 minutes prior to sample exposure. […] One hour's exposure represented a calculated radiation dose (using meter) of approximately 100 MED.

[6] = % transmission spectrum of 0.1% solution (breakthrough, steepness); settings: for Steepness: distance in nm over which transmittance increases from 1 to 80%; for Breakthrough (1% T at 0.1%): value in nm where transmittance increases beyond 1%, 0.1% solution
In short: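 Transmission was recorded for 0.1% methanol solutions in a 2 mm cuvette. Breakthrough is the wavelength (nm) at which transmittance exceeds 1%; steepness is the nm span over which transmittance rises from 1 to 80%. Some values are averages of multiple measurements.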

[7] = Stability to epoxy resin curing; settings: 2 part epoxy resin, transmittance vs solution
Experimental: In order to test the stability of a number of compounds to a typical epoxy resin curing system, epoxy adhesive packs were obtained (Parfix 5 minute everyday epoxy adhesive, 24 ml). This is a standard 2 part epoxy resin with the first part composed of a viscous Bisphenol-A/epichlorohydrin polymeric reaction product. The second part is a viscous 30% solution of an aminophenol hardener, T (shown below). Epoxy resins cured by 1° and 2° amines are also available.
To test the stability of the compounds to the curing conditions, a 0.1% wt (1 mg absorber per gram of resin) was prepared and added to a mould comprising a 2 mm thick viton o-ring super glued to a microscope slide. […] Due to difficulties in solubilising the compounds in the mixed resin/hardener in the limited working time as the resin cured; the two barrels of the application syringe were separated with a scalpel allowing the separate application of both parts of the resin system.
This was then mixed thoroughly and immediately added to the moulds as described above. […]

[8] = UV absorbance spectrum in solution (λmax, λcrit, extinction coefficients); settings: for λcrit: critical wavelength; for E (1%, 1 cm): mass extinction coefficient
In short: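 Spectra taken on 0.001% solutions in methanol, 10 mm path. Breakthrough is the wavelength where transmittance rises above 1%; steepness is the nm span over which transmittance goes from 1 to 80%.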

[9] = Irradiation of PMMA thin film (xenon lamp, sunlight); settings: irradiated 1 h, 2 h and 3 weeks direct sunlight
Experimental: In order to determine the stability of the compounds in a polymer matrix, thin films were cast in Poly(methylmethacrylate) (PMMA). This was achieved by adding the compound in question to a solution of PMMA (Mw 240,000) in DCM and spreading the resulting solution onto a glass slide before evaporation over night to give the desired film. The film was then sandwiched between 2 glass slides to prevent deformation and irradiated. […] In this way films of compound 164 were prepared. The films were irradiated for 1 h, 2 h and also left outside exposed to direct sunlight and atmospheric conditions for 3 weeks (Melbourne summer time).

[10] = Irradiation in polyurethane varnish coating; settings: 1% in polyurethane varnish, xenon arc lamp two hours
Experimental: As a model for the use of the compounds of the first aspect in coatings, a 1% solution by mass (10 mg in 1 g) of the compounds in British Paints oil based polyurethane varnish was applied to the surface of a microscope slide and left to dry overnight in the dark. The transmittance of the slide was then measured before irradiating the sample with a xenon arc lamp (as for the solution phase thin film samples) for two hours and the transmittance re-measured. Slight variations in the thickness of the films obtained would be sufficient to result in variations in transmittance so it was judged to be of equal importance to observe the slope of the samples before and after irradiation as any change here was likely an indicator of decomposition. The varnish itself blocks the transmission of light up to approximately 350-370 nm.

[11] = molar extinction coefficient, in M-1 cm-1 (unit assumed)

SMILES | Photostability (% remains) [2] | Photostability [2] | Stability to lens casting conditions [3] | Solubility for photostability measurement [5] | Steepness [6] | Breakthrough (1% T at 0.1%) [6] | Stability to epoxy resin curing [7] | λmax [8] | ε ([8]; UV, at λmax) | λcrit [8] | E (1%, 1 cm) [8] | ε [8, 11] | Stability in PMMA thin film [9] | Stability to irradiation in varnish [10] | Stability to lens casting conditions [1] | Longer term photostability in PMMA film [4]
CC1(C)CN(/C=C(\C(=O)C(F)(F)F)c2ccccc2)c2ccccc21 [Compound 213] |  |  |  |  | 22 nm | 413 nm |  | 366 nm |  | 389 nm | 860 | 29690 |  |  | stable enough for such incorporation; also recorded: good stability to the lens curing conditions | little sign of decomposition after irradiation
CCCCC(CC)COC(=O)c1ccc2c(c1)CCN2/C=C(\C(=O)C(F)(F)F)c1ccccc1 (centres unmarked) [Compound 215] | 85% |  |  |  |  |  |  | 374 nm |  | 391 nm | 1067 | 50515 |  |  |  | little sign of decomposition after irradiation
N#CCC(=O)/C(=C\N1CCc2ccccc21)c1ccccc1 [Compound 249] |  |  |  | Not soluble |  | 405 nm |  | 361 nm |  | 361 nm | 1089 | 31385 |  |  |  | 

Further lines, with some results ahead:

Photostability (% remains) [2] | Photostability [2] | Stability to lens casting conditions [3] | Solubility for photostability measurement [5] | Steepness [6] | Breakthrough (1% T at 0.1%) [6] | Stability to epoxy resin curing [7] | λmax [8] | ε ([8]; UV, at λmax) | λcrit [8] | E (1%, 1 cm) [8] | ε [8, 11] | Stability in PMMA thin film [9] | Stability to irradiation in varnish [10] | SMILES | Stability to lens casting conditions [1] | Longer term photostability in PMMA film [4]
91% and 99% | 99% | very little if any decomposition |  |  |  |  |  |  |  |  |  |  |  | CCN(/C=C(\C(=O)C(F)(F)F)c1ccccc1)c1ccccc1 [Compound 142, 4-(ethyl(phenyl)amino)-1,1,1-trifluoro-3-phenylbut-3-en-2-one] | stable enough for such incorporation; also recorded: very little if any decomposition | little sign of decomposition after irradiation
 |  | very little if any decomposition | Not soluble | 32 nm | 402 nm | little or no decomposition occurred | 351 nm | 27893 M⁻¹ cm⁻¹ | 381 nm | 760 | 27893 |  |  | O=C(/C(=C\N(c1ccccc1)c1ccccc1)c1ccccc1)C(F)(F)F [Compound 143, 4-(diphenylamino)-1,1,1-trifluoro-3-phenylbut-3-en-2-one] | stable enough for such incorporation; also recorded: very little if any decomposition | little sign of decomposition after irradiation
99% | 99% |  |  | 20 nm | 418 nm | remain intact after curing | 367 nm |  | 389 nm | 1127 | 35741 | without compound deterioration | largely unscathed by the irradiation | O=C(/C(=C\N1CCc2ccccc21)c1ccccc1)C(F)(F)F [Compound 164] | stable enough for such incorporation; also recorded: good stability to the lens curing conditions | little sign of decomposition after irradiation
